Experiment: Heavy metal (ferrous ion-Ferrozine) chelation assay
Type: biochemical
Settings: Fe2+ chelation; calculated based on unpreserved extract dry weight
Procedure: The IC50 refers to the amount of extract required to chelate 50% of the available iron (II) in the assay. The lower the number, the higher the chelation power of an extract.
The ability of Inula extract to act as an anti-pollutant or antagonist of the adverse effects of pollutants and/or toxins in pollutants was further investigated in heavy metal chelation assays. Further to this objective, Inula extracts was tested in in vitro assay to assess its chelator power. In this assay, the ferrous ion is used as a model for heavy metals. The concentration of the ferrous iron-Ferrozine complex was measured by spectrophotometry (absorbance at 562 nm) to determine the Fe 2+-chelating ability of the extract or fraction. The reaction mixture, containing 2 Mm FeCl2 and 5 mM ferrozine was adjusted to 2 ml with bi-distilled water. The mixture was shaken and incubated for 10 min at room temperature. The absorbance of the mixture was measured at 562 nm against a blank EDTA was used as positive control. The choice of an internal reference may be adjusted in accordance with the heavy metal assay performed and such references are known in the art. Chelating power is expressed as an IC50 value (mg/ml) and reflects the concentration at which 50% of the available iron was chelated by, for example, supplemental extract added to the assay mix.

Structure (SMILES): O=C(O)CN(CCN(CC(=O)O)CC(=O)O)CC(=O)O [EDTA (reference), EDTA]
- IC50* (mg/ml DRY WEIGHT): 0.038 mg/ml DRY WEIGHT

Source: patent US20210060108A1, “INULA HELENIUM EXTRACTS FOR TREATING AND PREVENTING POLLUTION RELATED DAMAGE” (priority 2017, published 2021)
